{"source": "patent US8158635B2", "about": "“Solid forms comprising 4-[9-(tetrahydro-furan-3-yl)-8-(2,4,6-trifluoro-phenylamino)-9H-purin-2-ylamino]-cyclohexan-1-ol, compositions thereof, and uses therewith” (Signal Pharmaceuticals, LLC, priority 2006, dated 2012)", "key": {"[1]": {"test": "Storage stability at stress conditions (about 40° C. and about 75% RH)", "type": "physicochemical", "details": "about 40° C. and about 75% RH for about four weeks", "protocol": "In certain embodiments, Form A of the HCl salt of Compound I is substantially pure. In certain embodiments, Form A of the HCl salt of Compound I is stable upon slurry in particular solvents at particular temperatures. For example, in certain embodiments, Form A of the HCl salt is stable in, e.g., acetone, acetonitrile, ethyl acetate, heptane, MTBE, toluene, THF and mixtures of two or more thereof at about 40° C. for about four weeks. In certain embodiments, Form A of the HCl salt is stable upon storage at particular stress conditions. For example, in certain embodiments, Form A of the HCl salt of Compound I is stable upon storage at about 40° C. and about 75% RH for about four weeks."}, "[2]": {"test": "Equilibration of solid form in solvent for 4 weeks at 40° C., resulting form by XRPD", "type": "physicochemical", "protocol": "Equilibration slurry and evaporation experiments were carried out by adding an excess of Compound I free base or HCl salt to 2 mL of solvent. […] Upon reaching equilibrium, the saturated supernatant solution was removed and allowed to evaporate slowly in an open vial under nitrogen at 25° C. or 50° C., respectively. The slurry resulting from the equilibration was filtered and air-dried. X-ray powder diffraction (XRPD) measurements were performed in accordance with United States Pharmacopeia (USP) monograph <941> entitled “X-ray Diffraction” (See, e.g., The United States Pharmacopeia, The National Formulary, 2003, The Unites States Pharmacopeial Convention, Inc., Rockville, Md., 2002, which is herein incorporated by reference in its entirety). A Thermo ARL X'TRA X-ray powder diffractometer (Thermo Electron Corp., Waltham, Mass.), equipped with Nickel-filtered Cu Kα radiation at 1.54 Å, was used for XRPD measurements from about 1.5 °2θ to about 40 °2θ, with a step size of about 0.020°, a count time of about 0.50 seconds per step, and a step scan rate of about 2.40°/min. The instrument was equipped with a fine focus X-ray tube. The voltage and amperage were set at 45 kV and 40 mA, respectively. The divergence slits were set at 0.5 mm and 0.2 mm. Diffracted radiation was measured using a Peltier-cooled Si (Li) solid-state detector. Representative XRPD patterns were presented displaying intensity (counts per second) versus position (°2θ). A sintered alumina standard was used to check peak positions. Peak positions may vary from sample to sample by approximately ±0.1 °2θ. Variation in peak position may depend upon multiple factors, including particle size, sample preparation, data collection temperature and parameters. Variation in peak intensity may occur, e.g., as a result of preferred orientation and/or variation in crystal habit."}}, "note": "Counter-ions that a name gives are not always drawn."}
{"smiles": "OC1CCC(Nc2ncc3nc(Nc4c(F)cc(F)cc4F)n(C4CCOC4)c3n2)CC1", "note": "(stereo not shown) [Form A of the HCl salt of Compound I, 4-[9-(tetrahydro-furan-3-yl)-8-(2,4,6-trifluoro-phenylamino)-9H-purin-2-ylamino]-cyclohexan-1-ol]", "values": [{"measurement": "stability upon storage at stress conditions", "setting": "[1]", "value": "stable"}, {"measurement": "Resulting Form by XRPD", "setting": "[2]; Equilibrate HCl salt Form A in 2-Propanol for 4 weeks at 40° C.", "value": "Compound I HCl Salt Form A"}, {"measurement": "Resulting Form by XRPD", "setting": "[2]; Equilibrate HCl salt Form A in Acetonitrile for 4 weeks at 40° C.", "value": "Compound I HCl Salt Form A"}, {"measurement": "Resulting Form by XRPD", "setting": "[2]; Equilibrate HCl salt Form A in Ethyl acetate for 4 weeks at 40° C.", "value": "Compound I HCl Salt Form A"}, {"measurement": "Resulting Form by XRPD", "setting": "[2]; Equilibrate HCl salt Form A in Heptane for 4 weeks at 40° C.", "value": "Compound I HCl Salt Form A"}, {"measurement": "Resulting Form by XRPD", "setting": "[2]; Equilibrate HCl salt Form A in MTBE for 4 weeks at 40° C.", "value": "Compound I HCl Salt Form A"}, {"measurement": "Resulting Form by XRPD", "setting": "[2]; Equilibrate HCl salt Form A in THF for 4 weeks at 40° C.", "value": "Compound I HCl Salt Form A"}, {"measurement": "Resulting Form by XRPD", "setting": "[2]; Equilibrate HCl salt Form A in Toluene for 4 weeks at 40° C.", "value": "Compound I HCl Salt Form A"}, {"measurement": "Resulting Form by XRPD", "setting": "[2]; Equilibrate HCl salt in Acetone for 4 weeks at 40° C.", "value": "Compound I HCl Salt Form A"}, {"measurement": "stability upon slurry in solvents", "setting": "[2]; acetone, acetonitrile, ethyl acetate, heptane, MTBE, toluene, THF and mixtures, about 40° C. for about four weeks", "value": "stable"}]}
